In ChEMBL document CHEMBL6134844, “Development of Next-Generation Antimalarial Acridones with Radical Cure Potential” (J Med Chem, 2025):

Columns and labels:
[1] = (§1) Selectivity index, ratio of CC50 for Macaca mulatta hepatocytes to IC50 for antiplasmodial activity against schizont Plasmodium cynomolgi B strain infected in Macaca mulatta hepatocytes incubated with sporozoite containing salivary gland homogenate obtained from dissected Anopheles dirus mosquitoes (infected with Plasmodium cynomolgi B strain) treatment started on day 4 post infection and continued daily for 4 days into fresh changed media until day 8 assessed as Liver stage (LS) activity by measuring prophylactic mode by immunofluorescent staining analysis; assay type: toxicity, cell-based; settings: rhesus monkey, read-out: Selectivity Index
Plasmodium falciparum [2] = experiment: Antiplasmodial activity against asexual blood-stage (ABS) MDR Plasmodium falciparum Dd2 infected in human erythrocytes assessed as reduction in fluorescence measured after 72 hrs by Malaria SYBR Green I-based Fluorescence (MSF) assay; assay type: functional, organism-based; settings: Dd2, Erythrocyte
Plasmodium cynomolgi [3] = experiment: as §1, with “Antiplasmodial” for “Selectivity index, ratio of CC50 for Macaca mulatta hepatocytes to IC50 for antiplasmodial”; assay type: functional, organism-based; settings: Hepatocyte
Plasmodium cynomolgi [4] = experiment: as §1, with “Antiplasmodial” for “Selectivity index, ratio of CC50 for Macaca mulatta hepatocytes to IC50 for antiplasmodial”, “hypnozoite” for “schizont”, “radical cure” for “prophylactic”; assay type: functional, organism-based; settings: Hepatocyte
[5] = as §1, with “hypnozoite” for “schizont”; assay type: toxicity, cell-based; settings: rhesus monkey, read-out: Selectivity Index
[6] = Toxicity in CF1 mouse infected with asexual blood-stage (ABS) Plasmodium yoelii MRA-428 assessed as hyperactivity at 0.3 to 30 mg/kg, po treated 24 hrs post infection measured after 4 days; assay type: organism-based; settings: in vivo, 96 h, dose 0.3-30 mg/kg, time 4 day
Plasmodium falciparum [7] = experiment: Antiplasmodial activity against asexual blood-stage (ABS) ATV-resistant clinical isolate Plasmodium falciparum Tm90-C2B infected in human erythrocytes assessed as reduction in fluorescence measured after 72 hrs by Malaria SYBR Green I-based Fluorescence (MSF) assay; assay type: functional, organism-based; settings: Erythrocyte
Plasmodium falciparum [8] = experiment: Antiplasmodial activity against asexual blood-stage (ABS) CQ-sensitive Plasmodium falciparum D6 infected in human erythrocytes assessed as reduction in fluorescence measured after 72 hrs by Malaria SYBR Green I-based Fluorescence (MSF) assay; assay type: functional, organism-based; settings: D6, Erythrocyte
Hepatocyte = experiment: Cytotoxicity against Macaca mulatta hepatocytes assessed as cell viability measured after 48 hrs by MTT assay; assay type: toxicity, cell-based; settings: rhesus monkey, 48 h
HepG2 = experiment: Cytotoxicity against human HepG2 cells assessed as cell viability measured after 48 hrs by MTT assay; assay type: functional, cell-based; settings: HepG2, 48 h
[9] = Toxicity in CF1 mouse infected with asexual blood-stage (ABS) Plasmodium yoelii MRA-428 assessed as ruffled hair at 0.3 to 30 mg/kg, po treated 24 hrs post infection measured after 4 days; assay type: organism-based; settings: in vivo, 96 h, dose 0.3-30 mg/kg, time 4 day
[10] = Toxicity in CF1 mouse infected with asexual blood-stage (ABS) Plasmodium yoelii MRA-428 assessed as weight loss at 0.3 to 30 mg/kg, po treated 24 hrs post infection measured after 4 days; assay type: organism-based; settings: in vivo, 96 h, dose 0.3-30 mg/kg, time 4 day
[11] = Toxicity in CF1 mouse infected with asexual blood-stage (ABS) Plasmodium yoelii MRA-428 assessed as lethargy at 0.3 to 30 mg/kg, po treated 24 hrs post infection measured after 4 days; assay type: organism-based; settings: in vivo, 96 h, dose 0.3-30 mg/kg, time 4 day
[12] = Toxicity in CF1 mouse infected with asexual blood-stage (ABS) Plasmodium yoelii MRA-428 assessed as hunching at 0.3 to 30 mg/kg, po treated 24 hrs post infection measured after 4 days; assay type: organism-based; settings: in vivo, 96 h, dose 0.3-30 mg/kg, time 4 day
Plasmodium cynomolgi [13] = experiment: as §1, with “Antiplasmodial” for “Selectivity index, ratio of CC50 for Macaca mulatta hepatocytes to IC50 for antiplasmodial”, “hypnozoite” for “schizont”; assay type: functional, organism-based; settings: Hepatocyte
Plasmodium yoelii [14] = experiment: In vivo antiplasmodial activity against asexual blood-stage (ABS) Plasmodium yoelii MRA-428 infected in 4-day suppression CF1 mouse model assessed as reduction in parasitemia treated 24 hrs post infection daily measured on day 4; assay type: functional
[15] = Toxicity in CF1 mouse infected with asexual blood-stage (ABS) Plasmodium yoelii MRA-428 assessed as clinical toxicity at 0.3 to 30 mg/kg, po treated 24 hrs post infection measured after 4 days; assay type: organism-based; settings: in vivo, dose 0.3-30 mg/kg
[16] = Toxicity in CF1 mouse infected with asexual blood-stage (ABS) Plasmodium yoelii MRA-428 assessed as behavioural change at 0.3 to 30 mg/kg, po treated 24 hrs post infection measured after 4 days; assay type: organism-based; settings: in vivo, dose 0.3-30 mg/kg
Plasmodium cynomolgi [17] = experiment: as §1, with “Antiplasmodial” for “Selectivity index, ratio of CC50 for Macaca mulatta hepatocytes to IC50 for antiplasmodial”, “radical cure” for “prophylactic”; assay type: functional, organism-based; settings: Hepatocyte
[18] = mouse, microsomes, 1 h
Plasmodium berghei [19] = experiment: In vivo antiplasmodial activity against luciferase expressing liver stage Plasmodium berghei ANKA MRA-868 sporozoites infected in Albino C57BL/6 mouse model assessed as blood stage infection at 40 mg/kg, po daily measured 72 hrs; assay type: functional, organism-based
[20] = human, microsomes, 1 h
[21] = as §1, with “hypnozoite” for “schizont”, “radical cure” for “prophylactic”; assay type: toxicity, cell-based; settings: rhesus monkey, read-out: Selectivity Index
[22] = as §1, with “radical cure” for “prophylactic”; assay type: toxicity, cell-based; settings: rhesus monkey, read-out: Selectivity Index
Plasmodium berghei [23] = experiment: In vivo antiplasmodial activity against luciferase expressing liver stage Plasmodium berghei ANKA MRA-868 sporozoites infected in Albino C57BL/6 mouse model assessed as protection at 10 mg/kg, po daily measured 24 to 72 hrs by real-time In Vivo Imaging System (IVIS); assay type: functional; settings: time lower 24.0 hrs, time upper […]
Plasmodium yoelii [24] = experiment: In vivo antiplasmodial activity against asexual blood-stage (ABS) Plasmodium yoelii MRA-428 infected in 4-day suppression CF1 mouse model assessed as reduction in parasitemia by measuring protection at 30 mg/kg, po treated 24 hrs post infection daily measured up to 28 days; assay type: functional, organism-based; settings: time <= 28.0 day

Row | Structure (SMILES) | selectivity ratio at 96 h [1] | IC50 (Plasmodium falciparum [2]) [nM] | IC50 (Plasmodium cynomolgi [3]) [nM] | IC50 (Plasmodium cynomolgi [4]) [nM] | selectivity ratio at 96 h [5] | IC50 (Plasmodium falciparum [7]) [nM] | IC50 (Plasmodium falciparum [8]) [pM] | CC50 (Hepatocyte) [nM] | IC50 (HepG2) [nM] | IC50 (Plasmodium cynomolgi [13]) [nM] | ED50 (Plasmodium yoelii [14]) [mg/kg] | ED90 (Plasmodium yoelii [14]) [mg/kg] | Activity [15] | Activity [16] | IC50 (Plasmodium cynomolgi [17]) [nM] | CLH [18] [µL/min/mg] | t1/2 [20] [h] | selectivity ratio at 96 h [21] | selectivity ratio at 96 h [22] | also measured
1 | O=c1c2c([nH]c3ccc(Oc4ccc(OC(F)(F)F)cc4)cc13)CCCC2 | > 40 | 13.3 | 500 | > 20000 | > 5.25 | 29.9 | 7550 | > 20000 | > 200000 | 3810 | 1.8 | 7.8 | Non-toxic | Non-toxic | > 20000 | 56.8 |  |  |  | Activity [6]: Non-toxic; Activity [9]: Non-toxic; Activity [10]: Non-toxic; Activity [11]: Non-toxic; Activity [12]: Non-toxic
2 | CCCCCCOc1ccc2c(=O)c3c([nH]c2c1)CCCC3 | > 7.09 | 2.73 | 2820 | > 20000 |  | 5.11 | 477 | > 20000 | > 200000 | > 20000 |  |  |  |  | > 20000 | 37.6 |  |  |  | Activity [6]: Non-toxic; Activity [9]: Non-toxic; Activity [10]: Non-toxic; Activity [11]: Non-toxic; Activity [12]: Non-toxic; Activity (Plasmodium berghei [19]): Active; Out Of 5 - 5 Mouse Cured
3 | O=c1c2ccc(OCc3ccc(OC(F)(F)F)cc3)cc2[nH]c2cc(Cl)cc(F)c12 | 10.4 | 0.128 | 80 | 470 | 1.76 | 30.4 | 0.041 | 830 | 177000 | 470 | 0.1 | 0.55 | Non-toxic | Non-toxic | 280 | < 3.125 | > 1 | 1.77 | 2.96 | 
4 | CC(C)(C)OC(=O)N1CCC(Oc2ccc3c(=O)c4c(F)cc(Cl)cc4[nH]c3c2)CC1 | 43.4 | 0.295 | 50 | 1780 | 4.62 | 271 | 0.7 | 2170 | 59900 | 470 | 0.34 | 0.72 | Non-toxic | Non-toxic | 670 | 58.5 | > 1 | 1.22 | 3.24 | 
5 | O=c1c2ccc(Oc3cccc(OC(F)(F)F)c3)cc2[nH]c2cc(Cl)cc(F)c12 | > 667 | 0.02 | 30 | > 20000 | > 35.7 | 8.6 | 70 | > 20000 | > 200000 | 560 | 0.19 | 0.9 | Non-toxic | Non-toxic | 16100 | 273 |  |  | > 1.24 | 
6 | CC(C)(C)OC(=O)N1CCC(Oc2ccc3c(=O)c4c(F)cc(Cl)cc4[nH]c3c2)C1 (stereo not drawn) | 176 | 0.183 | 70 | 2480 | 18.4 | 113 |  | 12300 | > 2500 | 670 | 0.1 | 0.43 | Non-toxic | Non-toxic | 960 | < 3.125 | > 1 | 4.96 | 12.8 | 
7 | O=c1c2c([nH]c3cc(Oc4cccc(OC(F)(F)F)c4)ccc13)CCCC2 | 16.8 | 0.537 | 600 | 7990 | 2.18 | 4.38 | 116 | 10100 | > 200000 | 4640 |  |  |  |  | 6870 | 29.7 | > 1 | 1.25 | 1.47 | Activity [6]: Non-toxic; Activity [9]: Non-toxic; Activity [10]: Non-toxic; Activity [11]: Non-toxic; Activity [12]: Non-toxic
8 | O=c1c2ccc(OCc3ccc(C(F)(F)F)cc3)cc2[nH]c2cc(Cl)cc(F)c12 | 15.2 | 0.182 | 140 | 910 | 3.33 | 34.9 | 0.052 | 2130 | 153000 | 640 | 0.32 | 1.42 | Non-toxic | Non-toxic | 810 | < 3.125 | > 1 | 2.34 | 2.63 | 
9 | COc1cc(C)c2c(Oc3cccc(C(F)(F)F)c3)c(OC)cc(NC(C)CCCN)c2n1 (stereo not drawn) [TAFENOQUINE] | 380 |  | 40 | 7810 | 89.4 |  |  | 15200 |  | 170 |  |  |  |  | 5440 |  |  | 1.95 | 2.79 | Activity (Plasmodium berghei [23]): Not active; Out Of 5 - 0 Mouse Cured
10 | CCN(CC)CCCC(C)Nc1ccnc2cc(Cl)ccc12 (stereo not drawn) [CHLOROQUINE] |  |  |  |  |  |  |  |  |  |  |  |  | Non-toxic | Non-toxic |  |  |  |  |  | 
11 | O=c1c2ccc(OCc3cccc(OC(F)(F)F)c3)cc2[nH]c2cc(F)cc(Cl)c12 | 39.5 | 0.004 | 150 | 4230 | 5.09 | 20.4 | 30 | 5930 | > 200000 | 1170 |  |  | Non-toxic | Non-toxic | 3520 | 33.5 | > 1 | 1.4 | 1.68 | Activity (Plasmodium berghei [19]): Active; Out Of 5 - 5 Mouse Cured
12 | O=c1c2ccc(Oc3ccc(OC(F)(F)F)cc3)cc2[nH]c2cc(F)c(Cl)cc12 | > 33.3 | 4.35 | 600 | > 20000 | > 48.8 | 48.4 | 4380 | > 20000 | > 200000 | 410 |  | 0.17 | Non-toxic | Non-toxic | 6550 | < 3.125 | > 1 |  | > 3.05 | Activity (Plasmodium yoelii [24]): Active; Out Of 4 - 3 Mouse Cured
